# Values joined by “and” are separate entries in the source; they are usually repeats but may differ in a detail not shown here. Identical values can stand only once.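 Test compounds were applied to cells in 96-well plates for 48 hours at 5 doses. GI50 is the concentration that inhibits growth by half. The concentration for full growth arrest is given as TGI.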
# Columns and labels:
# Assay in all cases: NCI-60 cell line screen, 48 h
# OVCAR-5 ovarian = system: OVCAR-5 ovarian
# MCF7 breast = system: MCF7 breast
# HOP-62 NSCLC = system: HOP-62 NSCLC
# SR leukemia = system: SR leukemia
# HS 578T breast = system: HS 578T breast
# K-562 leukemia = system: K-562 leukemia
# NCI-H226 lung = system: NCI-H226 lung
# KM12 colon = system: KM12 colon
# BT-549 breast = system: BT-549 breast
# M19-MEL melanoma = system: M19-MEL melanoma
# KM20L2 colon = system: KM20L2 colon
Structure (SMILES),TGI (OVCAR-5 ovarian),TGI (MCF7 breast) [µM],TGI (HOP-62 NSCLC) [µM],TGI (SR leukemia) [µM],TGI (HS 578T breast) [µM],TGI (K-562 leukemia) [µM],TGI (NCI-H226 lung),TGI (KM12 colon) [µM],TGI (BT-549 breast) [µM],TGI (M19-MEL melanoma) [µM],TGI (KM20L2 colon) [µM],GI50 (OVCAR-5 ovarian) [µM],GI50 (HOP-62 NSCLC) [µM],GI50 (NCI-H226 lung) [µM]
COC(=O)c1ccc(CCc2cc(O)ccc2O)cc1,50.7 µM,> 62.2,48.6,> 21,> 39.5,> 31.6,38.6 µM,27.5,25.6,–,–,–,–,–
Cc1ccc(NC(=S)Nc2c(C)n(C)n(-c3ccccc3)c2=O)cc1,> 100 µM,> 100,> 100,> 100,> 100,> 100,> 100 µM,> 100,> 100,–,–,–,–,–
Cc1cc(NS(=O)(=O)c2ccc(NC(=O)c3cccc4c(NNc5ccc(S(=O)(=O)N=C(N)N)cc5)c5ccccc5nc34)cc2)no1,> 100 µM,> 100,> 100,> 100,> 100,> 100,98.5 µM,> 100,> 100,–,–,–,–,–
Cc1cc2ccccc2n1CC(=O)N1CCCC1,> 100 µM,> 100,> 100,> 100,> 100,> 100,> 100 µM,> 100,> 100,–,–,–,–,–
CC1CCc2c(sc3ncnc(N/N=C/c4ccc(Cl)c(Cl)c4)c23)C1 (configuration not stated),> 100 µM,–,> 100,33,–,> 100,49.4 µM,–,–,96.2,> 100,–,–,–
CN(C)CCCNc1c2ccccc2nc2cccc([N+](=O)[O-])c12,0.0214 µM and 0.0509 µM,0.00188,–,0.0576,0.0148,> 100,0.0589 µM and 0.0601 µM,–,0.0151,0.0787,0.0398,0.0197,0.0222,0.0196
CC(=O)NC1=C(C)C(=O)c2c(nc3n2CCC3O)C1=O (configuration not stated),> 100 µM,–,> 100,35,–,44.3,63.4 µM,> 100,–,> 57.1,> 100,–,–,–
O=C(Nc1nnc(-c2ccccc2)o1)C(SC(=S)N1CCOCC1)c1ccccc1 (configuration not stated),88.8 µM,> 100,> 100,83.7,> 100,> 100,> 100 µM,> 100,> 100,–,–,–,–,–
CC1CC[C@@]2(OC1)O[C@H]1C[C@H]3[C@@H]4CC[C@H]5C[C@@H](OC6OC(CO)C(OC7OC(CO)C(OC8OC(CO)C(O)C(OC9OC(C)C(OC%10OC(C)C(O)C(O)C%10O)C(O)C9O)C8OC8OCC(O)C(O)C8O)C(O)C7O)C(O)C6O)CC[C@]5(C)[C@H]4CC(=O)[C@]3(C)[C@H]1[C@@H]2C (some centres not stated),40.3 µM,31.8,45.5,30.3,50.7,32.7,35.5 µM,36.1,37,–,–,–,–,–
Cc1ccc(C)c(COCCOCn2cc(Br)c(N)nc2=O)c1,> 100 µM,> 100,> 100,> 100,> 100,> 100,> 100 µM,> 100,> 100,–,–,–,–,–
C=CC(C)(C)N[C@@H](C(=O)N1CCC[C@H]1c1nc(-c2nc(C(=O)OCC=C(C)C)c(C)o2)c(C)o1)C(C)C,> 100 µM,91.4,51.7,40.6,40.2,> 100,35.6 µM,60.3,46.2,–,–,–,–,–
CCCC(CC)c1c(O)c(O)c(C(CC)CCC)c(C(CC)CCC)c1C(CC)CCC (configuration not stated),> 10 µM,> 10,> 10,> 10,> 10,> 10,> 10 µM,> 10,> 10,–,–,–,–,–
COc1ccc(-c2nc(-c3cc4ccccc4oc3=O)cs2)cc1,> 100 µM,> 100,96.4,> 100,> 100,> 100,> 100 µM,> 100,> 100,–,–,–,–,–
CC(C)(C)n1c(=O)n(C(=O)C(Cl)(Cl)Cl)n(C(=O)C(Cl)(Cl)Cl)c1=O,> 100 µM,> 100,> 100,> 100,> 100,> 100,> 100 µM,> 100,> 100,–,–,–,–,–
CCNC(=O)/C=C/CCC#Cc1ccc(-c2ccc(-c3cccs3)s2)s1,> 100 µM,–,> 100,> 100,–,–,> 100 µM,> 100,–,> 100,> 100,–,–,–
COc1ccc(C(=C(I)c2ccccc2)c2ccc(OC)cc2)cc1,> 100 µM,> 100,> 100,> 100,> 100,> 100,> 100 µM,> 100,> 100,–,–,–,–,–
N=S(=O)(c1ccccc1)c1ccccc1[N+](=O)[O-] (configuration not stated),> 100 µM,–,> 100,> 100,–,> 100,> 100 µM,> 100,–,> 100,> 100,–,–,–
COc1cc(/C=C2\N=C(c3ccccc3)N(/N=C3\C(=O)Nc4ccccc43)C2=O)cc(OC)c1OC,> 100 µM,> 100,> 100,> 100,> 100,> 100,> 100 µM,> 100,> 100,–,–,–,–,–
O=C(c1ccccc1)c1c(C(F)(F)F)n([O-])c2cc(Cl)c(Cl)cc2[n+]1=O,3.41 µM,1.24,0.909,0.724,2.9,6.09,13.7 µM,1.08,4.8,–,–,–,–,–
COC(=O)c1ccccc1C#CCCCOS(C)(=O)=O,> 10 µM,> 10,> 10,> 10,> 10,> 10,> 10 µM,> 10,> 10,–,–,–,–,–
C[C@H](CC[C@@H](O)C(C)(C)O)[C@H]1CC[C@@]2(C)[C@@H]3CC=C4[C@@H](CC[C@H](O)C4(C)C)[C@]3(C)C(=O)C[C@]12C,> 50 µM,> 50,> 50,> 50,> 50,> 50,> 50 µM,49.2,> 50,–,–,–,–,–
COc1cccc2c1C1(O)C2CCCC12OCCCO2 (configuration not stated),> 100 µM,–,> 100,–,–,> 100,> 100 µM,> 100,–,> 100,> 100,–,–,–
O=c1c2ccccc2n2nnc3ccc(NCCCNCCNCCCNc4ccc5nnn6c7ccccc7c(=O)c4c56)c1c32,18.1 µM,6.92,12.3,> 50,37.6,> 50,0.99 µM,> 22.5,18.9,–,–,–,–,–
O=C(NCCCCNCCCNC(=O)c1ccccc1)c1ccccc1,> 100 µM,> 100,> 100,> 100,> 100,> 100,> 100 µM,> 100,> 100,–,–,–,–,–
COC(=O)/C=C\C(C#N)(C#N)N=Cc1ccc(C)s1,15.9 µM,4.05,28.5,8.17,43.6,> 100,31.4 µM,31.8,12.2,–,–,–,–,–
Cc1cc(Nc2ccc(N=Nc3ccc(O)c4ncccc34)cc2)nc(C)n1,> 87.9 µM,52.2,> 69.6,> 100,> 59.4,39.1,44.1 µM,33.3,> 84.4,–,–,–,–,–
Nc1ccc(-c2nc3cc(F)ccc3s2)cc1I,43 µM,3.91,33.6,> 59.5,> 75.1,> 100,21 µM,> 100,29.9,–,–,–,–,–
[N-]=[N+]=NC1CC(n2cc(COCC(F)(F)F)c(=O)[nH]c2=O)OC1CO (configuration not stated),> 100 µM,–,> 100,–,–,> 100,–,> 100,–,> 100,> 100,–,–,–
CCOC(=O)C1=C(C)C(C(=O)OC)/C(=C/c2cccc3cccnc23)C1=O (configuration not stated),> 10 µM,> 10,> 10,> 10,> 10,> 10,> 10 µM,> 10,> 10,–,–,–,–,–
N#Cc1c(N2CCCC2)ncn(Cc2ccccc2)c1=S,> 100 µM,> 100,> 100,> 100,> 100,> 100,> 100 µM,> 100,> 100,–,–,–,–,–

# Reference: PubChem BioAssay (NCI)
